Structures are written as SMILES.

In assay [1] the target is human D3 receptor over-expressed in CHO-K1 cells (Homo sapiens, UniProt P35462). Briefly: PathHunter β-arrestin recruitment assay, competition with dopamine. The following applies: 30 nM (EC80) dopamine, Mean ± SEM, at least three experiments. It is filed as cell-based.
For assay [2], the target named is human D2 (long) expressed in HEK cells (Homo sapiens, UniProt P14416). Briefly: Radioligand binding assay with [125I]IABN, D2R.
Assay [3] deals with human D3 expressed in HEK cells (Homo sapiens, UniProt P35462). Briefly: Radioligand binding assay with [125I]IABN, D3R. The following applies: for D2R/D3R selectivity, (Ki for D2R)/(Ki for D3R): ratio of Ki values.
human D3 expressed in HEK cells, sequence (P35462 whole entry): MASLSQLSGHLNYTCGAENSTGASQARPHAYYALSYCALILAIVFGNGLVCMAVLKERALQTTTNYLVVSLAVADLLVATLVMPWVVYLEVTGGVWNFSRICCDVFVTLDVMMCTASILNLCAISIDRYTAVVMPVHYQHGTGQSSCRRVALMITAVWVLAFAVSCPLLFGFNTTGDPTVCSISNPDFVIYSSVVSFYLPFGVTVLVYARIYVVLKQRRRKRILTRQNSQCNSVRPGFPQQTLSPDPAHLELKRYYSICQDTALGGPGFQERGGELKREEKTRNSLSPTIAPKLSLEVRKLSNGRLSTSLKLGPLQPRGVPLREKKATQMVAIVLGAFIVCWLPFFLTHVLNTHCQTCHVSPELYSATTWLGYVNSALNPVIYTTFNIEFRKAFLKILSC

human D3 receptor over-expressed in CHO-K1 cells, sequence (P35462 whole entry): as above
human D2 (long) expressed in HEK cells, sequence (P14416 whole entry): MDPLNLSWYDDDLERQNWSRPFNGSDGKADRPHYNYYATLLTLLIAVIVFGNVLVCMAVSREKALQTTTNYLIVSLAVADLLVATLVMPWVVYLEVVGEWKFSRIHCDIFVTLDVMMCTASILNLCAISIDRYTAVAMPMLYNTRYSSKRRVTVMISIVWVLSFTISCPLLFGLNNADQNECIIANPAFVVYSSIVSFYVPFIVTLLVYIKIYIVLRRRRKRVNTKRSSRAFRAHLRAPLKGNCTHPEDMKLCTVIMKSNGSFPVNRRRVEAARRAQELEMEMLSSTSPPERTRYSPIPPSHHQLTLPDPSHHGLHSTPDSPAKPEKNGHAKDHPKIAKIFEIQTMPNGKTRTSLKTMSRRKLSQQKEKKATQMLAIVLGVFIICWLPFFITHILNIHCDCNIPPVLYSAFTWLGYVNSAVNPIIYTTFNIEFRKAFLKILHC

On to `C=CCN1C[C@H](OC(=O)Nc2ccc(-c3ccccn3)cc2)C[C@H]1CNC(=O)c1cc(CCCF)cc(OC)c1OC` [Compound 37k, (3R,5S)-1-allyl-5-((5-(3-fluoropropyl)-2,3-dimethoxybenzamido)methyl)pyrrolidin-3-yl (4-(pyridin-2-yl)phenyl)carbamate], for which, in assay [1], the “IC50 in β-arrestin recruitment assay (inhibiting dopamine)” value (shortened to “IC50 … (inhibiting dopamine)”) is recorded as “much lower potency”.

On to `C=CCN1C[C@@H](OCCCN)C[C@H]1CNC(=O)c1cc(CCCF)cc(OC)c1OC` [Compound 40, N-(((2S,4S)-1-allyl-4-(3-aminopropoxy)pyrrolidin-2-yl)methyl)-5-(3-fluoropropyl)-2,3-dimethoxybenzamide], for which the Ki (as a rule, a measure of affinity in units of concentration, obtained from inhibition or displacement) in assay [2] amounted to 16.9 ± 0.9 nM.

On to `C=CCN1C[C@H](OCCN)C[C@H]1CNC(=O)c1cc(CCCF)cc(OC)c1OC` [Compound 35a, N-(((2S,4R)-1-allyl-4-(2-aminoethoxy)pyrrolidin-2-yl)methyl)-5-(3-fluoropropyl)-2,3-dimethoxybenzamide], for which, in assay [3], the “higher affinity for D3R versus D2R” value is given as 11 fold.

For the compound `C=CCN1C[C@H](OC(=O)Nc2ccc(-c3ccsc3)cc2)C[C@H]1CNC(=O)c1cc(CCCF)cc(OC)c1OC` [Compound 37l, (3R,5S)-1-allyl-5-((5-(3-fluoropropyl)-2,3-dimethoxybenzamido)methyl)pyrrolidin-3-yl (4-(thiophen-3-yl)phenyl)carbamate], in assay [1], the “IC50 … (inhibiting dopamine)” value is on record as “much lower potency”.

On to `CCN1C[C@H](OC(=O)Nc2ccc(-c3ccsc3)cc2)C[C@H]1CNC(=O)c1cc(CCCF)cc(OC)c1OC` [Compound 47, (3R,5S)-1-ethyl-5-((5-(3-fluoropropyl)-2,3-dimethoxybenzamido)methyl)pyrrolidin-3-yl (4-(thiophen-3-yl)phenyl)carbamate], for which the “IC50 … (inhibiting dopamine)” value in assay [1] is “much lower potency”.

For the compound `C=CCN1C[C@H](OC(=O)Nc2ccoc2)C[C@H]1CNC(=O)c1cc(CCCF)cc(OC)c1OC` [Compound 37h, (3R,5S)-1-allyl-5-((5-(3-fluoropropyl)-2,3-dimethoxybenzamido)methyl)pyrrolidin-3-yl furan-3-ylcarbamate], the “D2R/D3R selectivity, (Ki for D2R)/(Ki for D3R)” value in assay [3] is “higher affinity for D2R versus D3R”.

For the compound `C=CCN1C[C@@H](OC(=O)Nc2ccc(-c3ccsc3)cc2)C[C@H]1CNC(=O)c1cc(CCCF)cc(OC)c1OC` [Compound 41, (3S,5S)-1-allyl-5-((5-(3-fluoropropyl)-2,3-dimethoxybenzamido)methyl)pyrrolidin-3-yl (4-(thiophen-3-yl)phenyl)carbamate], in assay [3], the “D2R/D3R selectivity, (Ki for D2R)/(Ki for D3R)” value is recorded as “modest”.

The values above are taken from article PMC10841072 (European journal of medicinal chemistry, 2023).
